We go through four compounds from ChEMBL document CHEMBL3751769, “Design, synthesis, and evaluation of semi-conservative mono-carbonyl analogs of curcumin as anti-inflammatory agents against lipopolysaccharide-induced acute lung injury” (Medchemcomm, 2015).

Active and inactive are the calls of the source. No cut-off for these calls is given here. A value given as a limit tells only on which side of the number the result lay.

Series [1] is described as follows: Cytotoxicity against human HL-7702 cells assessed as cell viability at 10 uM after 24 hrs by MTT assay. It is filed as cell-based. The settings on record: l02, 24 h. In general terms: Tetrazolium assays rely on reduction of a dye to a coloured formazan, in cell work by metabolically active cells.
Series [2] deals with RAW264.7. Briefly: Anti-inflammatory activity in mouse RAW264.7 cells assessed as inhibition of IL-6 production at 10 uM preincubated for 30 mins followed by 0.5 ug/ml LPS addition after 24 hrs by ELISA. Format: functional. (An ELISA detects its analyte on a solid surface through an enzyme-linked reagent.)
The subject of series [3] is RAW264.7. Briefly: Anti-inflammatory activity in mouse RAW264.7 cells assessed as inhibition of TNFalpha production at 10 uM preincubated for 30 mins followed by 0.5 ug/ml LPS addition after 24 hrs by ELISA. Format: functional.
The subject of series [4] is RAW264.7. Briefly: Anti-inflammatory activity in mouse RAW264.7 cells assessed as inhibition of TNFalpha production preincubated for 30 mins followed by 0.5 ug/ml LPS addition after 24 hrs by ELISA. Format: functional, cell-based.
The test system of series [5] is RAW264.7. Briefly: Anti-inflammatory activity in mouse RAW264.7 cells assessed as inhibition of IL-6 production preincubated for 30 mins followed by 0.5 ug/ml LPS addition after 24 hrs by ELISA. Format: functional, cell-based.
Series [6] deals with BEAS-2B. The series is described as follows: Anti-inflammatory activity in human BEAS2B cells assessed as inhibition of LPS-induced COX2 mRNA expression by real-time qPCR analysis. More on the design: scale not given: the % may be the effect or the level left. Format: functional.
Series [7] concerns Rattus norvegicus. Briefly: Anti-inflammatory activity in Sprague-Dawley rat assessed as decrease in LPS-induced COX2 mRNA expression at 20 mg/kg/day, po for 7 days pre-treated before LPS challenge by real-time qPCR analysis. Format: functional. (Quantitative PCR measures a nucleic acid by following its amplification.)
Series [8] has as its system Rattus norvegicus. The series is described as follows: Anti-inflammatory activity in Sprague-Dawley rat assessed as decrease in LPS-induced VCAM1 mRNA expression at 20 mg/kg/day, po for 7 days pre-treated before LPS challenge by real-time qPCR analysis. It is filed as functional.
Series [9] has as its system BEAS-2B. Briefly: Anti-inflammatory activity in human BEAS2B cells assessed as inhibition of LPS-induced IL6 mRNA expression by real-time qPCR analysis. Format: functional. Further details: scale not given: the % may be the effect or the level left.
For series [10], the system named is Rattus norvegicus. The series is described as follows: Anti-inflammatory activity in Sprague-Dawley rat assessed as decrease in LPS- induced elevation of BALF protein concentration at 20 mg/kg/day, po for 7 days pre-treated before LPS challenge and measured 6 hrs after LPS challenge. Format: functional, organism-based.
The subject of series [11] is Rattus norvegicus. Briefly: Anti-inflammatory activity in Sprague-Dawley rat assessed as decrease in LPS- induced wet/dry ratio of lung tissue at 20 mg/kg/day, po for 7 days pre-treated before LPS challenge and measured 6 hrs after LPS challenge. It is filed as functional, organism-based.
The subject of series [12] is Rattus norvegicus. The series is described as follows: Anti-inflammatory activity in Sprague-Dawley rat assessed as decrease in LPS- induced number of neutrophils in BALF at 20 mg/kg/day, po for 7 days pre-treated before LPS challenge and measured 6 hrs after LPS challenge by Wright-Giemsa staining method. Format: functional, organism-based.
Series [13] relates to Rattus norvegicus. Briefly: Anti-inflammatory activity in Sprague-Dawley rat assessed as decrease in LPS-induced ICAM1 mRNA expression at 20 mg/kg/day, po for 7 days pre-treated before LPS challenge by real-time qPCR analysis. It is filed as functional.
Series [14] has as its system Rattus norvegicus. Briefly: Anti-inflammatory activity in Sprague-Dawley rat assessed as decrease in LPS-induced IL6 mRNA expression at 20 mg/kg/day, po for 7 days pre-treated before LPS challenge by real-time qPCR analysis. Format: functional.
For series [15], the system named is Rattus norvegicus. The series is described as follows: Anti-inflammatory activity in Sprague-Dawley rat assessed as decrease in LPS-induced IL1beta mRNA expression at 20 mg/kg/day, po for 7 days pre-treated before LPS challenge by real-time qPCR analysis. It is filed as functional.
The test system of series [16] is Rattus norvegicus. The series is described as follows: Anti-inflammatory activity in Sprague-Dawley rat assessed as decrease in LPS- induced amount of TNFalpha in BALF at 20 mg/kg/day, po for 7 days pre-treated before LPS challenge and measured 6 hrs after LPS challenge by ELISA. It is filed as functional, organism-based.
Series [17] deals with BEAS-2B. The series is described as follows: Anti-inflammatory activity in human BEAS2B cells assessed as inhibition of LPS-induced IL1beta mRNA expression by real-time qPCR analysis. Format: functional. More on the design: scale not given: the % may be the effect or the level left.
For series [18], the system named is Rattus norvegicus. Briefly: Anti-inflammatory activity in Sprague-Dawley rat assessed as reduction in LPS-induced histopathological changes at 20 mg/kg/day, po for 7 days pre-treated before LPS challenge and measured 6 hrs after LPS challenge by light microscopic analysis. It is filed as functional, organism-based.
Series [19] concerns BEAS-2B. Briefly: Anti-inflammatory activity in human BEAS2B cells assessed as inhibition of LPS-induced TNFalpha mRNA expression by real-time qPCR analysis. Further details: scale not given: the % may be the effect or the level left. It is filed as functional.
Series [20] deals with Rattus norvegicus. The series is described as follows: Anti-inflammatory activity in Sprague-Dawley rat assessed as decrease in LPS-induced TNFalpha mRNA expression at 20 mg/kg/day, po for 7 days pre-treated before LPS challenge by real-time qPCR analysis. It is filed as functional.

Take `COc1ccc(/C=C2\CCC/C(=C\c3ccc(O)c(OC)c3)C2=O)cc1O`: in series [1], the Activity entry is “Non-toxic”. The “inhibition (INH)” value in the series with RAW264.7 [2] and in the series on RAW264.7 [3] was greater than 50% throughout. For the same compound, the inhibition result in the series with RAW264.7 [4] and in the series with RAW264.7 [5] was “Dose-dependent effect” throughout.

For the compound `COc1cc(/C=C2\CCC/C(=C\c3ccc(O)c(Br)c3)C2=O)ccc1O`, the Activity result in series [1] was “Non-toxic”. For the same compound, the “inhibition (INH)” value with RAW264.7 [2] and in the series with RAW264.7 [3] was greater than 50% in each case. Further, the inhibition result in the series with RAW264.7 [4] and with RAW264.7 [5] was “Dose-dependent effect” each time.

Take `COc1cc(/C=C2\CC/C(=C\c3c[nH]c4ccc(Br)cc34)C2=O)ccc1O`: the Activity is 64.9% with BEAS-2B [6]; “Non-toxic” in series [1]; 30% with BEAS-2B [9]; 55.6% in the series with BEAS-2B [17]; 64.5% with BEAS-2B [19]. Besides, the inhibition in vivo at 20 mg/kg/day in the series with Rattus norvegicus [7] turned out to be 77.3%; in the series on Rattus norvegicus [8], 52.9%; with Rattus norvegicus [13], 74.1%; in the series with Rattus norvegicus [14], 92.9%; in the series on Rattus norvegicus [15] it was 39.2%; with Rattus norvegicus [20] it was 38.4%. The outcome with Rattus norvegicus [10], with Rattus norvegicus [11], in the series on Rattus norvegicus [12], with Rattus norvegicus [16] and in the series on Rattus norvegicus [18] was Active. Besides, the “inhibition (INH)” value in the series with RAW264.7 [2] and in the series with RAW264.7 [3] was greater than 50% in each case. The inhibition entry with RAW264.7 [4] and in the series on RAW264.7 [5] was “Dose-dependent effect” in each case.

For `COc1cc(/C=C2\CC/C(=C\c3cc(C)ccc3C)C2=O)ccc1O`, the Activity result in [1] was “Non-toxic”. For the same compound, the “inhibition (INH)” value with RAW264.7 [2] and in the series on RAW264.7 [3] was greater than 50% in each case. In addition, the inhibition entry in the series with RAW264.7 [4] and in the series with RAW264.7 [5] was “Dose-dependent effect” in each case.

The inhibition in vivo is the share of the control response that was lost under treatment.
